{"source": "patent US8461389B2", "about": "“Psycho-pharmaceuticals” (University College Dublin, National University of Ireland, …, priority 2008, dated 2013)", "key": {"Sigma 2 receptor": {"target": "T1, Sigma 2 receptor (Homo sapiens, UniProt Q5BJF2)", "T1 construct": "Novascreen (contract screen)", "T1 sequence (Q5BJF2 whole entry, species assumed)": "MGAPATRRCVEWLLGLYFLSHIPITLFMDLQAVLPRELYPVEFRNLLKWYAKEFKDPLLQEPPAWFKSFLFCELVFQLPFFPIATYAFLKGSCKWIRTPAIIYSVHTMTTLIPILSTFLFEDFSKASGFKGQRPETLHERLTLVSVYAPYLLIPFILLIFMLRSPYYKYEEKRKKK", "test": "Novascreen receptor affinity screen (competition with reference ligand), Sigma 2", "type": "binding", "conditions": "1 μM Captodiamine competing with a reference ligand; read-out: percent target inhibition, Sigma 2 receptor", "procedure": "(§1) The Structure (FIG. 9A), receptor affinity (FIG. 9B), pharmacokinetics (FIG. 9C) and growth factor modulation (FIG. 9D) of Captodiamine are provided. Analysis of receptor affinities was performed by Novascreen™ and those displacing >20% of the natural ligand are indicated by the filled boxes. Blood levels of Captodiamine were determined by GC mass spectroscopy. In separate samples taken from a cannulated jugular at increasing time intervals following a single intraperitoneal injection of tha drug (5 mg/kg). Growth factor analysis was performed using tissue homogenates and ELISA assays specific for each growth factor (Promega). Values were analysed using a Student t-test and those with a p value<0.05 were accepted as significant and are indicated with an asterisk.\n(§2) The higher the target inhibition value, the greater the affinity Captodiamine has for this particular receptor as it displaces a greater proportion of the reference ligand. This assay is an automated high throughput assay performed on cell lines that express only one type of receptor and was carried out by Novascreen (www.novascreen.com). Receptor affinity is a good starting point for determining the mechanism of action for a particular compound."}, "C57B16 mice": {"tested_on": "C57B16 mice", "test": "Novel object recognition (NOR) test", "type": "in vivo", "excerpt": "Before training the animals with objects, they are first allowed to acclimatize to the testing environment, a white Perspex box (30 cm by 20 cm) equipped with an overhead camera. After an acclimation session, the animals are ready for the training stage. This stage involves the introduction of two identical objects (Lego Duplo) to the environment before allowing the rodent to explore for a period of five minutes: Following the training period, the rodent is removed from the environment for a delay period which can range from 5 minutes to 24 hours, depending on the type of memory being tested. After the delay, the rodent is returned to the arena, where one of the original objects has been replaced by a new one, such as a glass container.\nThe amount of time that the rodents spends exploring each object can be calculated by hand or by using a computer program receiving input from the overhead camera. The literature describes a variety of methods for analyzing results. One technique involves dividing the time spent exploring the novel object by the total time spent exploring either object, yielding % novel exploration. An alternative technique is used to calculate the discrimination ratio, defined as the difference in exploration time for the objects divided by total exploration time. The method of analysis should be suited to the specific experimental setup. […]"}, "dopamine D3 receptor": {"target": "T2, dopamine D3 receptor (Homo sapiens, UniProt P35462)", "T2 construct": "Novascreen (contract screen)", "T2 sequence (P35462 whole entry, species assumed)": "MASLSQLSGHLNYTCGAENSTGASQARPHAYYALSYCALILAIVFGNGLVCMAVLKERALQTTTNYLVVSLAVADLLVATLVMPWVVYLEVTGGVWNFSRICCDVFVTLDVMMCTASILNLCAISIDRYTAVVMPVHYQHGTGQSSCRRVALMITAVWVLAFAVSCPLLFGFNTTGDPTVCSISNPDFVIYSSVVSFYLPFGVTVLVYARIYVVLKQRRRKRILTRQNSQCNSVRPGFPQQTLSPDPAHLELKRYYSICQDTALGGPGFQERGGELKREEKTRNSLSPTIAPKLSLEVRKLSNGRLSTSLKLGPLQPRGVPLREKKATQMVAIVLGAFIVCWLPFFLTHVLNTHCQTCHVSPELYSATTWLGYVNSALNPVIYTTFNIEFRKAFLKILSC", "test": "Novascreen receptor affinity screen (competition with reference ligand), dopamine D3", "type": "binding", "conditions": "1 μM Captodiamine competing with a reference ligand; read-out: percent target inhibition, dopamine D3 receptor", "procedure": "as §1, §2"}, "[1]": {"tested_on": "GDNF (Glial cell derived neurotrophic factor)", "test": "GDNF levels in brain regions by ELISA after sub-chronic administration", "type": "in vivo, mice", "conditions": "sub-chronic 7 day treatment, FIG. 9D", "procedure": "Neurotrophic factor concentration was determined by using an ELISA purchased from Promega Inc;\nThe Experimental protocol employed in the behavioural evaluation of Captodiamine is set out as follows: Three separate cohorts of C57B16 mice were employed in the behavioural evaluation of Captodiamine (see FIG. 7). Cohort 1 was used to evaluate the drug effect on prepulse inhibition, spatial learning, open-field and novel object recognition. Cohort 2 was used to evaluate drug effects on the forced swim test and the elevated X-maze. The behavioural tests were administered in sequence as per day number indicated in the bar of FIG. 7. The drug was administered by the intraperitoneal route and on the day of training the drug was administered after the behavioural analysis. […]\nThe Structure (FIG. 9A), receptor affinity (FIG. 9B), pharmacokinetics (FIG. 9C) and growth factor modulation (FIG. 9D) of Captodiamine are provided. […] Blood levels of Captodiamine were determined by GC mass spectroscopy. […] Values were analysed using a Student t-test and those with a p value<0.05 were accepted as significant and are indicated with an asterisk."}}}
{"smiles": "CCCCSc1ccc(C(SCCN(C)C)c2ccccc2)cc1", "note": "(stereo not drawn) [Captodiamine, 2-[(4-butylsulfanylphenyl)-phenyl-methyl]sulfanyl-N,N-dimethyl-ethanamin]", "values": [{"measurement": "inhibition at 1 µM", "setting": "Sigma 2 receptor", "value": "> 20", "unit": "%"}, {"measurement": "time investigating objects during the training phase, Novel Object Recognition Task", "setting": "C57B16 mice; 3 mg/kg dose, one-tailed t-test", "value": "significantly longer investigating objects"}, {"measurement": "time exploring objects in training (day 1) and testing (day 2) phases, NOR", "setting": "C57B16 mice; FIG. 8 right hand panel", "value": "more time exploring objects"}, {"measurement": "inhibition at 1 µM", "setting": "dopamine D3 receptor", "value": "> 80", "unit": "%"}, {"measurement": "GDNF expression levels, hypothalamus", "setting": "[1]", "value": "but not in either the hippocampus or the hypothalamus"}, {"measurement": "GDNF expression levels, prefrontal cortex", "setting": "[1]", "value": "significantly decreased"}]}
